The values below come from patent US20060025477A1, “Analogs of isovaleramide, a pharmaceutical composition including the same, and a method of treating central nervous system conditions or diseases” (priority 2004, published 2006).

The test system of series [1] is male Swiss-Webster mice. Description: Maximal electroshock (MES)-induced tonic extension seizure test. It counts as in vivo, mouse. The following applies: for # P/# T (protected/tested): 300 mg/kg p.o. How it is done: In the MES test, a substance is administered orally (p.o.) and is tested for efficacy against maximal electroshock (MES)-induced tonic extension seizures. Adult male Swiss-Webster mice (each 20-25 g of body weight) were used. The mice were housed in Association for the Assessment and Accreditation of Laboratory Animal Care-approved facilities under a constant 12-hour light/dark cycle with a constant temperature of 21° C.-23° C. and a relative humidity of 30% to 50%. All animals were permitted free access to standard laboratory chow (Prolab RMH 3000; PMI Nutrition International, LLC, Brentwood, Mo.) and water, except when removed from their home cages for testing. All mice were handled in a manner consistent with the recommendations in the National Research Council Publication Guide for the Care and Use of Laboratory Animals.
(§1) Test compounds (Compound S, Compound W, the S-enantiomer of Compound AA, the R-enantiomer of Compound AA, Compound HH, Compound JJ, and Compound MM) were dissolved in saline containing 0.5% methylcellulose. To determine time to peak effect, 300 mg/kg of each of the test compounds was suspended in 0.5% methylcellulose in saline and administered orally to a group of 20 mice. For comparative purposes, isovaleramide was also tested. At various times (0.25, 0.5, 1, 2, and 4 hours) after p.o. administration, individual mice were placed on the rotarod and tested for their ability to maintain balance on a rotating (6 rpm) 2.5-cm diameter knurled rod for 60 seconds. Mice that fell three times in this 60-second trial were considered impaired.
Following rotarod testing, the mice were tested in the maximal electroshock (MES)-induced tonic extension seizures test. For this test, a drop of electrolyte solution (0.5% butacaine sulfate in 0.9% saline) was placed on the eyes of each mouse prior to placement of corneal electrodes. The mice were restrained by gripping the loose skin on their dorsal surface and saline-coated corneal electrodes were held lightly against the two corneas. Each mouse received an electrical stimulation (50 mAmp, 50 Hz current, 0.2 sec) delivered through a silver-coated corneal electrode using an electroshock machine as originally described by Woodbury and Davenport (Arch Int. Pharmacodyn. Ther., 92:97-104, 1952). […] A tonic seizure was defined as a hindlimb extension in excess of 90 degrees from the plane of the body. Results were treated in a quantal manner. […] ED50's (the effective dose at which 50% of the mice were protected) were determined for Compounds W and HH by administering various doses (30, 100, 300 mg/kg) at the previously determined time to peak effect, as shown in Table 11.
A general note: In the maximal electroshock model the usual endpoint is tonic extension of the hind limbs.

The subject of series [2] is male Swiss-Webster mice. Description: Rotarod impairment test before MES testing. It counts as in vivo, mouse. As to conditions: 300 mg/kg p.o. How it is done:
as §1

The subject of series [3] is Frings audiogenic seizure-susceptible mouse. Description: Frings audiogenic seizure assay (protection against sound-induced tonic hindlimb extension). It counts as in vivo. The following applies: Mus musculus, po. The method, then: The anticonvulsant activity of compound S ((S)-(+)-2,2-dimethylcyclopropane-carboxamide) was tested using the Frings audiogenic seizure-susceptible mouse. […] Compound S, which is a solution at 300 mg/kg and a suspension at 600 mg/kg, was administered to the mice at the doses indicated in Tables 1-3. Compound S was obtained from Sigma-Aldrich Chemical Co. (Aldrich catalog number: 43,463-9).
At the time of testing, individual mice were placed into a round Plexiglas chamber and exposed to a sound stimulus of 110 decibels, 11 kHz, for 20 seconds. Mice not displaying tonic hindlimb extensions upon exposure to the sound stimulus were considered protected. In addition, the seizure score for each mouse was recorded as: (1) running for less than 10 seconds; (2) running for greater than 10 seconds; (3) clonic activity of limbs and/or vibrissae; (4) forelimb extension/hindlimb flexion; and (5) hindlimb extension. The average seizure score was calculated for each group of mice used in the dose-response study.
The anticonvulsant activity of compounds I, W, X, and AA was tested using the Frings audiogenic seizure-susceptible mouse model as described in Example 23. […] The therapeutic index relates to separation between therapeutic efficacy and CNS toxicity as measured by motor impairment in the rotarod performance test.

A further series concerns Frings mice. Description: Rotarod test of motor impairment (toxicity) in the Frings study. The following applies: for Therapeutic Index: Frings, mouse, in vivo, po. It counts as in vivo. How it is done:
At each dose, the mice were also tested on a rotarod for testing of motor impairment (toxicity). Testing for motor impairment on the rotarod involved placing a mouse for a three-minute trial period on a one-inch diameter rod rotating at six revolutions per minute. If the mouse fell off of the rotating rod three times within the three-minute time period, the dose was considered a toxic response.
The therapeutic index relates to separation between therapeutic efficacy and CNS toxicity as measured by motor impairment in the rotarod performance test.

For series [4] the following is noted: humans, cited from earlier work.
Where [5] appears, read: Table 5, read-out: ED50 Oral Administration.

Where two headings read alike, the source gives them in different places.

Regarding `C[C@H](C(N)=O)C(C)(C)C` [Compound MM], the “# P/# T (protected/tested)” value is 0/4 with male Swiss-Webster mice [1] (0.25 hours); 1/4 in the series with male Swiss-Webster mice [1] (0.5 hours); 2/4 with male Swiss-Webster mice [1] (1 hour); 3/4 with male Swiss-Webster mice [1] (2 hours); 3/4 in the series with male Swiss-Webster mice [1] (4 hours). In addition, the “# I/# T (impaired/tested)” value in the series with male Swiss-Webster mice [2] (0.25 hours) is 2/4; with male Swiss-Webster mice [2] (0.5 hours), 3/4; in the series with male Swiss-Webster mice [2] (1 hour), 4/4; in the series on male Swiss-Webster mice [2] (2 hours), 3/4; with male Swiss-Webster mice [2] (4 hours) it was 3/4.

With `CC(C)[C@@H](C)C(N)=O` [AA (S- enantiomer)], the “# P/# T (protected/tested)” value with male Swiss-Webster mice [1] (0.25 hours) is 3/4; in the series with male Swiss-Webster mice [1] (0.5 hours), 0/4; with male Swiss-Webster mice [1] (1 hour) it was 1/4; with male Swiss-Webster mice [1] (2 hours) it was 1/4; in the series with male Swiss-Webster mice [1] (4 hours), 0/4. In addition, in series [3] (setting [5]), the ED50 was found to be 84.1 mg/kg. Further, the “Therapeutic Index” value with Frings mice is recorded as >4-fold. Further, the “# I/# T (impaired/tested)” value in the series on male Swiss-Webster mice [2] (0.25 hours) is given as 0/4; in the series with male Swiss-Webster mice [2] (0.5 hours), 1/4; in the series on male Swiss-Webster mice [2] (1 hour), 0/4; in the series with male Swiss-Webster mice [2] (2 hours), 0/4; in the series on male Swiss-Webster mice [2] (4 hours) it was 0/4.

On to `CC1CCC(CC(N)=O)CC1` (stereo not shown) [Compound X, 2-(4-methylcyclohexyl)acetamide], for which the ED50 in series [3] (setting [5]) is 86.4 mg/kg. Moreover, the “Therapeutic Index” value in the series on Frings mice is recorded as >6-fold.

`CC(C)[C@H](C)C(N)=O` [AA (R- enantiomer)]: the “# P/# T (protected/tested)” value in the series on male Swiss-Webster mice [1] (0.25 hours), in the series with male Swiss-Webster mice [1] (0.5 hours), in the series with male Swiss-Webster mice [1] (1 hour), in the series on male Swiss-Webster mice [1] (2 hours) and in the series on male Swiss-Webster mice [1] (4 hours) was 0/4 each time. Besides, the ED50 in series [3] (setting [5]) came to 84.2 mg/kg. In addition, the “Therapeutic Index” value in the series with Frings mice was >4-fold. The “# I/# T (impaired/tested)” value in the series on male Swiss-Webster mice [2] (0.25 hours) is 3/4; with male Swiss-Webster mice [2] (0.5 hours), 3/4; in the series on male Swiss-Webster mice [2] (1 hour), 0/4; in the series on male Swiss-Webster mice [2] (2 hours), 3/4.

Consider `CC(C)CC(=O)NCC(N)=O` [Compound I], for which the ED50 in series [3] (setting [5]) was under 1000 mg/kg.

For the compound `CC(C)C(C)(C)C(N)=O` [Compound JJ], the “# P/# T (protected/tested)” value is recorded as 1/4 in the series with male Swiss-Webster mice [1] (0.25 hours); 0/4 in the series on male Swiss-Webster mice [1] (0.5 hours); 0/4 with male Swiss-Webster mice [1] (1 hour); 0/4 in the series on male Swiss-Webster mice [1] (2 hours); 0/4 with male Swiss-Webster mice [1] (4 hours). Also, the “# I/# T (impaired/tested)” value in the series with male Swiss-Webster mice [2] (0.25 hours) is recorded as 1/4; in the series with male Swiss-Webster mice [2] (0.5 hours) it was 2/4; in the series on male Swiss-Webster mice [2] (1 hour) it was 1/4; with male Swiss-Webster mice [2] (2 hours) it was 0/4; in the series on male Swiss-Webster mice [2] (4 hours) it was 0/4.

With `CC(C)CC(N)=O` [Isovaleramide, isovaleramide], the ED50 was found to be 913 mg/kg with male Swiss-Webster mice [1] (Mus musculus, po, at time to peak effect, MES, read-out: ED50 Oral Administration) and 206 mg/kg in series [3] (Table 4, read-out: ED50). The “separation between efficacy and CNS toxicity” value in the series with Frings mice (as measured by rotarod impairment, p.o.) came to 5 fold. Also, the half-life entry in series [4] (oral, doses ranging from 100 mg to 1600 mg) is listed as “about 2.5 hours”. Besides, the absorption result in series [4] (orally administered) is “readily absorbed from the gastrointestinal tract”.

Take `CC(C)C(C)C(N)=O` (racemic) [AA (cis and trans mixture)]: the ED50 in series [3] (setting [5]) turned out to be 140 mg/kg.

For `C[C@H]1CC[C@H](C(N)=O)CC1` [Compound W, trans-4-methylcyclohexanecarboxamide], in the series with male Swiss-Webster mice [1] (p.o., at time to peak effect, MES), the “ED50 Oral Administration” value is given as “Inactive at 300 mg/kg”. In addition, the ED50 in series [3] (setting [5]) worked out at 164 mg/kg. Besides, in the series on Frings mice, the “Therapeutic Index” value is reported as >4-fold.
